How the values were obtained:
HIV integrase = HIV integrase (Human immunodeficiency virus type 1 group M subtype B, UniProt P04585); assay: biochemical
Method: The inhibitory activities against integrase were determined by the assay described below. • (1) Preparation of DNA Solutions
Before using the DNA solutions, complementary chains were annealed by slowly cooling after boiling.
Streptavidin, obtained from Vector Laboratories, was dissolved in 0.1 M carbonate buffer (composition: 90 mM Na2CO3, 10 mM NaHCO3) at concentration of 40 μg/ml. After coating each well of immunoplates (obtained from NUNC) with 50 μl of the above solution at 4° C. over night, each well was washed twice with PBS (composition: 13.7 mM NaCl, 0.27 mM KCl, 0.43 mM Na2HPO4, 0.14 mM KH2PO4) and blocked with 300 μl of 1% skim milk in PBS for 30 min. Additionally, each well was washed twice with PBS and added 50 μl of substrate DNA solution (2 pmol/μl). The immunoplates were kept at room temperature for 30 min while shaking. Then, each well was washed twice with PBS and once with the distilled water.
Subsequently, in the each well prepared above were added 51 μl of the reaction solution prepared from 12 μl of the buffer (composition: 150 mM MOPS (pH7.2), 75 mM MnCl2, 50 mM 2-mercaptoethanol, 25% glycerol, 500 μg/ml bovine serum albumin-fraction V), and 39 μl of the distilled water. Then 9 μl of an integrase solution (30 pmol) was added and mixed well. In the well of negative control (NC) was added 9 μl of the integrase dilution buffer (composition: 20 mM MOPS (pH7.2), 400 mM potassium glutamate, 1 mM EDTA, 0.1% NP-40, 20% glycerol, 1 mM DTT, 4M urea), and mixed well using a plate mixer.
The plates were incubated at 30° C. for 60 minutes. The reaction solution was removed and washed three times with 250 μl of washing buffer (composition: 150 mM MOPS (pH7.2), 50 mM 2-mercaptoethanol, 25% glycerol, 500 μg/ml bovine serum albumin-fraction V).
Then each well was added with 53 μl of reaction solution prepared from 12 μl of buffer (composition: 150 mM MOPS (pH7.2), 75 mM MgCl2, 50 mM 2-mercaptoethanol, 25% glycerol, 500 μg/ml bovine serum albumin-fraction V) and 41 μl of distilled water. Further, each well was added with 6 μl of DMSO solution of a compound to be tested, and the well of positive control (PC) was added with 6 μl of DMSO, and mixed well by a plate mixer. After incubating the plate for 30 minutes at 30° C., was added 1 μl of target DNA (5 pmol/μl), and mixed well by a plate mixer.
After incubation for 10 minutes at 30° C., each plate was washed twice with PBS after removal of the reaction solution. Then, 100 μl of ×2000 diluted solution of anti-digoxigenin antibody labeled with alkaline phosphatase (sheep Fab fragment: Boehringer) was added allowed to bind for 1 hour at 30° C., and washed twice with PBS containing 0.05% Tween20 and once with PBS in this sequence. Next, 150 μl of the Alkaline phosphatase coloring buffer (composition: 10 mM p-Nitrophenylphosphate (obtained from Vector Laboratories), 5 mM MgCl2, 100 mM NaCl, 100 mM Tris-HCl (pH 9.5)) was added and allowed to react for 2 hours at 30° C. Then the reaction was terminated by the addition of 50 μl of 1N NaOH solution. The optical density at 405 nm (OD405nm) of each well was measured and the inhibition rate (IC50) was determined by the following expression. The inhibition rate(%)=100[1−{(C abs.−NC abs.)/(PC abs.−NC abs.)}]
C abs.; the OD of the well of the compound
NC abs.: the OD of the negative control (NC)
PC abs.: the OD of the positive control (PC)

| SMILES | melting point [°C] | IC50 (HIV integrase) [nM] |
| --- | --- | --- |
| Cc1nc(C(=O)NN(C)C)c(O)c2ncc(Cc3ccc(F)cc3)cc12 [Example B-17, 3-(4-fluorobenzyl)-8-hydroxy-5-methyl[1,6]naphthyridine-7-carboxylic acid N′,N′-dimethylhydrazide] | 137 to 139 | 16.9 |
| CC(O)c1nc(C(=O)NN(C)C)c(O)c2ncc(Cc3ccc(F)cc3)cc12 (stereo not drawn) [Example B-18, 3-(4-fluorobenzyl)-8-hydroxy-5-(1-hydroxyethyl)[1,6]naphthyridine-7-carboxylic acid N′,N′-dimethylhydrazide] | 114 to 116 | 44.2 |
| COCC=Cc1nc(C(=O)NN(C)C)c(O)c2ncc(Cc3ccc(F)cc3)cc12 [Example B-19, 3-(4-fluorobenzyl)-8-hydroxy-5-(3-methoxypropenyl)[1,6]naphthyridine-7-carboxylic acid N′,N′-dimethylhydrazide] | 115 to 116 | 11.2 |

— patent US7919623B2, “Naphthyridine derivatives having inhibitory activity against HIV integrase” (Shionogi & Co., Ltd., priority 2004, dated 2011)
